# In patent US10022421B2, “Treatment of primary and metastatic carcinoma” (Spectrum Pharmaceuticals Inc., priority 2012, dated 2018):
# Numbered stars: 1 amine (or outer) side, 2 acyl side, 3 side chain; on linkers, the order of the positions; unused ones are H or OH. Ends that are not written are not given here. Suc = O=C(CCC(=O)[*:2])[*:1]
# Assays:
# [1] = system: progressive or recurrent carcinoma; experiment: Open label, single arm, dose escalation study of IRL-1620 in combination with docetaxel: anti-tumor activity; type: in vivo, human
# Text: Patient characteristics were as follows.
# CT or MRI scans are used to assess the patient's tumor size. A series of dynamic contrast enhancer pattern MRI scans are used to measure any increases in blood flow induced by IRL 1620.
# [2] = system: blood flow in tumor and non-tumor regions; experiment: H2^15O PET Blood Flow scans after IRL-1620; type: in vivo, human; conditions: patients, PET blood flow scans on Day 8
# [3] = 30 patients, IRL-1620 with docetaxel
# [4] = previously docetaxel treated prostate cancer patient
substance,measurement,setting,value
"N-Succunyl-[Glu^9, Ala^11,15] Endothelin-1 (8-21) (Suc-DEEAVYFAHLDIIW) [IRL-1620, ETB receptor agonist]",time on study of patients with prolonged clinical benefit,"[1]; 4 cases, IRL-1620 with docetaxel",20-74 weeks
same,cases of prolonged clinical benefit,[1]; [3],4 cases
same,cases of stable disease,[1]; [3],5 cases
same,prolonged clinical benefit rate,[1]; [3],13%
same,stable disease (SD) rate,[1]; [3],16%
same,anti-tumor activity,[1]; docetaxel-pretreated patients,Anti-tumor activity was seen
same,time to complete regression of lung metastasis,[1]; one patient with cholangiocarcinoma,≤ 3 months
same,time on study before progressing,"[1]; one patient with cholangiocarcinoma, complete regression of lung metastasis",41 weeks
same,discontinuation of the study due to disease progression,"[1]; patients, IRL-1620 with docetaxel",84%
same,PSA response,[1]; [4],PSA response
same,change in metastatic prostate cancer,[1]; [4],measurable decrease
same,changes in blood flow,[2],did not result in any measurable changes
